Data: ChEMBL document CHEMBL4038308, “Lipophosphonoxins II: Design, Synthesis, and Properties of Novel Broad Spectrum Antibacterial Agents” (J Med Chem, 2017)
Converted amounts (≈) assume the structure as drawn. The source made the active and inactive calls. The calls are words filed in the database; no cut-off is given here.

Assays:
Staphylococcus aureus [1] = experiment: Bactericidal activity against Staphylococcus aureus CCM 4223 assessed as reduction in bacterial count at 25 mg/L after 6 hrs by time kill assay; type: functional
Escherichia coli [2] = experiment: Induction of cytoplasmic membrane permeabilization in Escherichia coli CCM 3954 assessed as increase in propidium iodide fluorescence intensity at 5 mg/L by spectrofluorometric analysis; type: functional
Pseudomonas aeruginosa [3] = experiment: Induction of cytoplasmic membrane permeabilization in Pseudomonas aeruginosa CCM 3955 assessed as increase in propidium iodide fluorescence intensity at 5 mg/L by spectrofluorometric analysis; type: functional
[4] = Chemical stability of compound at 50 to 500 mg/L at pH 5 after 24 hrs at room temperature by LC-MS analysis; type: physicochemical; conditions: buffer, pH 5, 24 h
[5] = Critical micellar concentration of the compound by capillary electrophoresis method
Staphylococcus aureus [6] = experiment: Antibacterial activity against methicillin-resistant Staphylococcus aureus 4591 clinical isolates after 24 hrs by microdilution method; type: functional; conditions: Staphylococcus aureus, 4591, 24 h
BJ = experiment: Cytotoxicity against human BJ cells assessed as reduction in cell viability after 48 hrs by ATPlite reagent based assay
Salmonella enteritidis = experiment: Antibacterial activity against Salmonella enteritidis S2-25 after 24 hrs by microdilution method; type: functional, Salmonella enterica subsp. enterica serovar Enteritidis; conditions: Salmonella enterica, S2-25, 24 h
Oryctolagus cuniculus [7] = experiment: Toxicity in topically applied rabbit assessed as skin irritation measured by measuring physiological abnormalities up to 7 days post dose; conditions: in vivo, topical_or_ocular, 168 h
Mus musculus [8] = experiment: Toxicity in ICR mouse assessed as mortality up to 2000 mg/kg, po administered as single dose measured for 2 weeks; type: organism-based; conditions: in vivo, 336 h
Escherichia coli [9] = experiment: Antibacterial activity against Escherichia coli CCM 3954 after 24 hrs by microdilution method; type: functional; conditions: CCM 3954, 24 h
TERT-RPE1 [10] = experiment: Induction of apoptosis in human RPE1 cells assessed as caspase 3/7 activation up to 80 mg/L after 4 hrs by caspase-Glo 3/7 luminescent assay; type: cell-based; conditions: tert-rpe1, 4 h
[11] = Chemical stability of compound at 50 to 500 mg/L at pH 0.18 after 24 hrs at room temperature by LC-MS analysis; type: physicochemical; conditions: buffer, pH 0.18, 24 h
TERT-RPE1 [12] = experiment: Cytotoxicity against human RPE1 cells assessed as reduction in cell viability after 48 hrs by ATPlite reagent based assay; conditions: tert-rpe1, 48 h
Bacillus subtilis [13] = experiment: Antibacterial activity against Bacillus subtilis assessed as inhibition of protein synthesis at 1.5 mg/L after 50 mins by [35S]-methionine incorporation assay; type: functional
Oryctolagus cuniculus [14] = experiment: Toxicity in topically dosed rabbit assessed as skin irritation by measuring behavioral abnormalities measured up to 7 days post dose; type: organism-based; conditions: in vivo, topical_or_ocular, 168 h
Enterococcus faecium = experiment: Antibacterial activity against vancomycin-resistant Enterococcus faecium 419/ana clinical isolates after 24 hrs by microdilution method; type: functional
Escherichia coli [15] = experiment: Antibacterial activity against Escherichia coli 16702 after 24 hrs by microdilution method; type: functional; conditions: Escherichia coli, 16702, 24 h
Burkholderia multivorans = experiment: Antibacterial activity against Burkholderia multivorans after 24 hrs by microdilution method; type: functional
Staphylococcus aureus [16] = experiment: Bactericidal activity against Staphylococcus aureus CCM 4223 assessed as reduction in bacterial count at 6.25 to 12.5 mg/L after 24 hrs by time kill assay; type: functional
[17] = test system: Staphylococcus epidermidis; experiment: Induction of cytoplasmic membrane permeabilization in Staphylococcus epidermidis 8700/B assessed as increase in propidium iodide fluorescence intensity at 5 mg/L by spectrofluorometric analysis; type: functional
HepG2 [18] = experiment: Induction of apoptosis in human HepG2 cells assessed as caspase 3/7 activation up to 80 mg/L after 4 hrs by caspase-Glo 3/7 luminescent assay; type: cell-based; conditions: hepg2, 4 h
Acinetobacter baumannii = experiment: Antibacterial activity against Acinetobacter baumannii A3-08 after 24 hrs by microdilution method; type: functional; conditions: A3-08, 24 h
[19] = Chemical stability of compound at 50 to 500 mg/L at pH 5 after 24 hrs at 37 degC by LC-MS analysis; type: physicochemical; conditions: buffer, pH 5, 24 h
[20] = test system: Staphylococcus epidermidis; experiment: Antibacterial activity against Staphylococcus epidermidis 8700/B after 24 hrs by microdilution method; type: functional
Lipid bilayer = experiment: Binding affinity to DOPG large unilamellar vesicle assessed as carboxyfluorescein leakage at 10 mg/L after 20 secs by fluorescence-based assay relative to control
Bacillus subtilis [21] = experiment: Antibacterial activity against Bacillus subtilis after 24 hrs by microdilution method; type: functional
HepG2 [22] = experiment: Cytotoxicity against human HepG2 cells assessed as disruption of cell membrane integrity after 4 hrs by CytoTox-ONE-based assay; conditions: hepg2, 4 h
[23] = test system: Staphylococcus haemolyticus; experiment: Antibacterial activity against fluoroquinolne-resistant Staphylococcus haemolyticus 16568 after 24 hrs by microdilution method; type: functional; conditions: Staphylococcus haemolyticus, 16568, 24 h
TERT-RPE1 [24] = experiment: Cytotoxicity against human RPE1 cells assessed as disruption of cell membrane integrity at >80 mg/L after 4 hrs by CytoTox-ONE-based assay; conditions: tert-rpe1, 4 h
J774.A1 = experiment: Cytotoxicity against mouse J774A.1 cells assessed as damage to cell membrane by measuring propidium iodide intake at 5 mg/L by spectrofluorometric analysis; type: cell-based
Oryctolagus cuniculus [25] = experiment: Toxicity in topically applied rabbit assessed as skin irritation measured up to 14 days post dose; conditions: in vivo, topical_or_ocular, 336 h
[26] = Chemical stability of compound at 50 to 500 mg/L at pH 0.18 after 24 hrs at 37 degC by LC-MS analysis; type: physicochemical; conditions: buffer, pH 0.18, 24 h
Bacillus subtilis [27] = experiment: Antibacterial activity against Bacillus subtilis assessed as inhibition of peptidoglycan synthesis at 1.5 mg/L after 50 mins by [3H]-N-acetylglucosamine incorporation assay; type: functional
TERT-RPE1 [28] = experiment: Cytotoxicity against human RPE1 cells assessed as disruption of cell membrane integrity after 4 hrs by CytoTox-ONE-based assay; conditions: tert-rpe1, 4 h
Bacillus subtilis [29] = experiment: Antibacterial activity against Bacillus subtilis assessed as inhibition of DNA synthesis at 1.5 mg/L after 50 mins by [3H]thymidine incorporation assay; type: functional
Pseudomonas aeruginosa [30] = experiment: Antibacterial activity against Pseudomonas aeruginosa CCM 3955 after 24 hrs by microdilution method; type: functional; conditions: CCM 3955, 24 h
Enterococcus faecalis = experiment: Antibacterial activity against Enterococcus faecalis CCM 4224 after 24 hrs by microdilution method; type: functional; conditions: CCM 4224, 24 h
Staphylococcus aureus [31] = experiment: Antibacterial activity against Staphylococcus aureus CCM 4223 after 24 hrs by microdilution method; type: functional; conditions: CCM 4223, 24 h
Pseudomonas aeruginosa [32] = experiment: Antibacterial activity against Pseudomonas aeruginosa 16575 after 24 hrs by microdilution method; type: functional; conditions: Pseudomonas aeruginosa, 16575, 24 h
HepG2 [33] = experiment: Cytotoxicity against human HepG2 cells assessed as reduction in cell viability after 48 hrs by ATPlite reagent based assay; conditions: hepg2, 48 h
Escherichia coli [34] = experiment: Bactericidal activity against Escherichia coli CCM 3954 assessed as reduction in bacterial count at 12.5 mg/L after 45 mins by time kill assay; type: functional
[35] = Chemical stability of compound at 50 to 500 mg/L at pH 8.8 after 24 hrs at room temperature by LC-MS analysis; type: physicochemical; conditions: buffer, pH 8.8, 24 h
Bacillus subtilis [36] = experiment: Antibacterial activity against Bacillus subtilis assessed as inhibition of plasma membrane lipids synthesis at 1.5 mg/L after 50 mins by [3H]-sodium acetate incorporation assay; type: functional
Bacillus subtilis [37] = experiment: Antibacterial activity against Bacillus subtilis assessed as inhibition of RNA synthesis at 1.5 mg/L after 50 mins by [3H]-uridine incorporation assay; type: functional
Streptococcus agalactiae = experiment: Antibacterial activity against Streptococcus agalactiae after 24 hrs by microdilution method; type: functional
[38] = test system: Stenotrophomonas maltophilia; experiment: Antibacterial activity against Stenotrophomonas maltophilia S2-23 after 24 hrs by microdilution method; type: functional; conditions: S2-23, 24 h
Escherichia coli [39] = experiment: Bactericidal activity against Escherichia coli CCM 3954 assessed as reduction in bacterial count at 25 mg/L after 30 mins by time kill assay; type: functional
Staphylococcus aureus [40] = experiment: Induction of cytoplasmic membrane permeabilization in Staphylococcus aureus CCM 4223 assessed as increase in propidium iodide fluorescence intensity at 5 mg/L by spectrofluorometric analysis; type: functional
[41] = Chemical stability of compound at 50 to 500 mg/L at pH 8.8 after 24 hrs at 37 degC by LC-MS analysis; type: physicochemical; conditions: buffer, pH 8.8, 24 h
[42] = Pore forming activity across black lipid bilayer membranes assessed as induction of variation in membrane current by measuring pore conductance at 5 ug/ml
Mus musculus [43] = experiment: Toxicity in ICR mouse assessed as body weight loss up to 2000 mg/kg, po administered as single dose measured for 2 weeks; type: organism-based; conditions: in vivo, 336 h
Bacillus subtilis [44] = experiment: Antibacterial activity against Bacillus subtilis assessed as inhibition of DNA synthesis at 10 mg/L after 50 mins by [3H]thymidine incorporation assay; type: functional
Bacillus subtilis [45] = experiment: Antibacterial activity against Bacillus subtilis assessed as inhibition of protein synthesis at 10 mg/L after 50 mins by [35S]-methionine incorporation assay; type: functional
Bacillus subtilis [46] = experiment: Antibacterial activity against Bacillus subtilis assessed as inhibition of RNA synthesis at 10 mg/L after 50 mins by [3H]-uridine incorporation assay; type: functional
Bacillus subtilis [47] = experiment: Antibacterial activity against Bacillus subtilis assessed as inhibition of plasma membrane lipids synthesis at 10 mg/L after 50 mins by [3H]-sodium acetate incorporation assay; type: functional
Bacillus subtilis [48] = experiment: Antibacterial activity against Bacillus subtilis assessed as inhibition of peptidoglycan synthesis at 10 mg/L after 50 mins by [3H]-N-acetylglucosamine incorporation assay; type: functional

Q: Which results are given for `CCCCCCCCCCCCCCCOP(=O)(CCN(CCCNC(=N)N)CCCNC(=N)N)OC[C@H]1O[C@@H](n2ccc(=O)[nH]c2=O)[C@H](O)[C@@H]1O` (some centres not stated)?
A: Activity (Staphylococcus aureus [1]): Active; Activity (Escherichia coli [2]): Active; Activity (Pseudomonas aeruginosa [3]): Active; Stability [4]: Stable; CMC [5]: 1.42 mM; MIC (Staphylococcus aureus [6]): 3.13 µg/mL (≈ 4.12 µM); Activity (BJ): 29.6 mg/L; MIC (Salmonella enteritidis): 1.56 µg/mL (≈ 2.05 µM); Activity (Oryctolagus cuniculus [7]): Non-Toxic; Activity (Mus musculus [8]): Non-Toxic; MIC (Escherichia coli [9]): 0.78 µg/mL (≈ 1.03 µM); Activity (TERT-RPE1 [10]): Non-Toxic; Stability [11]: Stable; Activity (TERT-RPE1 [12]): 39.8 mg/L; inhibition (Bacillus subtilis [13]): inactive; Activity (Oryctolagus cuniculus [14]): Non-Toxic; MIC (Enterococcus faecium): 50 µg/mL (≈ 65.8 µM); MIC (Escherichia coli [15]): 0.78 µg/mL (≈ 1.03 µM); MIC (Burkholderia multivorans): 25 µg/mL (≈ 32.9 µM); Activity (Staphylococcus aureus [16]): Active; Activity [17]: Active; Activity (HepG2 [18]): Non-Toxic; MIC (Acinetobacter baumannii): 3.13 µg/mL (≈ 4.12 µM); Stability [19]: Stable; MIC [20]: 1.56 µg/mL (≈ 2.05 µM); Activity (Lipid bilayer): < 85%; MIC (Bacillus subtilis [21]): 0.39 µg/mL (≈ 0.513 µM); Activity (HepG2 [22]): Non-Toxic; MIC [23]: 1.56 µg/mL (≈ 2.05 µM); Activity (TERT-RPE1 [24]): Non-Toxic; Activity (J774.A1): Non-Toxic; Activity (Oryctolagus cuniculus [25]): Non-Toxic; Stability [26]: Stable; inhibition (Bacillus subtilis [27]): inactive; Activity (TERT-RPE1 [28]): Non-Toxic; inhibition (Bacillus subtilis [29]): inactive; MIC (Pseudomonas aeruginosa [30]): 0.78 µg/mL (≈ 1.03 µM); MIC (Enterococcus faecalis): 25 µg/mL (≈ 32.9 µM); MIC (Staphylococcus aureus [31]): 3.13 µg/mL (≈ 4.12 µM); MIC (Pseudomonas aeruginosa [32]): 1.56 µg/mL (≈ 2.05 µM); Activity (HepG2 [33]): 36.7 mg/L; Activity (Escherichia coli [34]): Active; Stability [35]: Stable; inhibition (Bacillus subtilis [36]): inactive; inhibition (Bacillus subtilis [37]): inactive; MIC (Streptococcus agalactiae): 1.56 µg/mL (≈ 2.05 µM); MIC [38]: 3.13 µg/mL (≈ 4.12 µM); Activity (Escherichia coli [39]): Active; Activity (Staphylococcus aureus [40]): Active; Stability [41]: Stable; Activity [42]: 23 to 168 pS; Activity (Mus musculus [43]): Non-Toxic

Q: With `O=C(N[C@H](CO)[C@H](O)c1ccc([N+](=O)[O-])cc1)C(Cl)Cl` as the compound, how does the inhibition (Bacillus subtilis [44]) read?
A: Active

Q: And the inhibition (Bacillus subtilis [45])?
A: Active

Q: What about the inhibition (Bacillus subtilis [46]) of the same compound?
A: Active

Q: What about the inhibition (Bacillus subtilis [47]) of the same compound?
A: Active

Q: And the inhibition (Bacillus subtilis [48])?
A: Active
